In paper PMC11497205, “Gold(I) Complexes Based on Nonsteroidal Anti-Inflammatory Derivatives as Multi-Target Drugs against Colon Cancer” (Inorganic Chemistry, 2024):

How the values were obtained:
[1] = system: Caco-2/TC7 cells; assay: MTT antiproliferative assay on Caco-2/TC7 colon cancer cells; assay type: cell-based, human; details: 72 h incubation, undifferentiated cells, mean ± SE
From the text: The antiproliferative effect of the reference drug auranofin was included as positive control. […] However, the coordination of the gold-phosphane unit to these ligands derived from NSAIDs leads to much more cytotoxic complexes, as can be observed in Table 1 with IC50 values in the range of that found in auranofin or even lower values for complexes [Au(L1)(CyJohnPhos)] (1a), [Au(L4)(CyJohnPhos)] […] This fact has already been observed previously in related gold complexes with an alkyne ligand derived from naproxen molecule,[43] which makes naproxen an excellent pharmacophore when coordinated to gold(I).
The human Caco-2 cell line (TC7 clone) was kindly provided by Dr. Edith Brot-Laroche (Université Pierre et Marie Curie-Paris 6, UMR S 872, Les Cordeliers, France), Human epithelial fibroblast cells (NHDF-Ad, Lonza, Porriño, Spain) were kindly provided by Dr. Gracia Mendoza (Aragon Health Research Institute, IIS Aragón, Spain). Caco-2 cells (passages 36–48) and fibroblasts (passages 10–20) were maintained in a humidified atmosphere of 5% CO2 at 37 °C in Dulbecco’s Modified Eagles medium (DMEM) (Gibco Invitrogen. Paisley. UK) supplemented with 20% fetal bovine serum, 1% nonessential amino acids, 1% penicillin (1000 U/mL), 1% streptomycin ([…]) and 1% amphotericin (250 U/mL). The Caco-2 cells were subcultured in 25 cm^2 plastic flasks at a density of 3 × 10^5 cells/cm^2, while the fibroblasts were subcultured on 75 cm^2 plastic flasks at a density of 1 × 10^4 cells/cm^2. The culture medium was replaced every 2 days.
The gold complexes were diluted in dimethyl sulfoxide (DMSO) as a 10 mM stock solution and then diluted in a cell culture medium at the desired concentrations. For the cytotoxicity screening assays, Caco-2 cells were seeded in 96-well plates at a density of 4 × 10^3 cells/well. […] The antiproliferative effect was measured using an MTT assay, as previously described by Marmol et al.[93] The absorbance at 540/620 nm was measured using a SPECTROstar Nano (BMG Labtech. Ortenberg. Germany). […]

[2] = biological target: T1, COX-1 (Homo sapiens, UniProt P23219); assay: Intracellular COX-1 activity, kit on Caco-2/TC7 cell lysates; assay type: cell-based; details: Caco-2/TC7 cells, 24 h incubation with 20 μM of free ligands, mean ± SEM
T1 construct: a cyclooxygenase activity assay kit starting from Caco-2/TC7 cell lysates was used; endogenous in cells; host or cells: Caco-2/TC7 (human colon carcinoma)
From the text: (§1) Previous studies have shown that modifications in the structure of the naproxen molecule have led to effective inhibition of COX-2, with a high degree of selectivity compared to the COX-1 isoform.[63],[64] Thus, we have tested the inhibitory activity of the best active compounds [Au(L3)(JohnPhos)] […] For this purpose, a cyclooxygenase activity assay kit starting from Caco-2/TC7 cell lysates was used, aiming to develop a new class of inhibitors that present a balanced COX-1/COX-2 inhibition to control the severe side effects resulting from nonselective COX inhibition. Inhibition of COX enzymes is expressed as the percentage of inhibition relative to control COX-1 or COX-2 activity. […] Complex [Au(L4)(JohnPhos)] […] This fact underscores the importance of the coordination of the metal center to the NSAID derivative, since the presence of the gold center is essential for achieving selectivity toward the COX-2 isoform, similar to what is observed in other gold compounds for different biomolecules.[65],[66]
(§2) The interaction of metal complexes with the enzyme cyclooxygenase was analyzed using a cyclooxygenase (COX) Activity Assay Kit (fluorometric) (AB204699 Abcam Inc. Massachusetts, USA). The procedural guidelines of the supplied kit were followed. The reaction commenced with the introduction of AA.

[3] = biological target: T2, COX-2 (Homo sapiens, UniProt P35354); assay: Intracellular COX-2 activity, kit on Caco-2/TC7 cell lysates; assay type: cell-based; details: Caco-2/TC7 cells, 24 h incubation with 20 μM of free ligands, mean ± SEM
T2 construct: a cyclooxygenase activity assay kit starting from Caco-2/TC7 cell lysates was used; endogenous in cells; host or cells: Caco-2/TC7 (human colon carcinoma)
T2 sequence (P35354 18-604): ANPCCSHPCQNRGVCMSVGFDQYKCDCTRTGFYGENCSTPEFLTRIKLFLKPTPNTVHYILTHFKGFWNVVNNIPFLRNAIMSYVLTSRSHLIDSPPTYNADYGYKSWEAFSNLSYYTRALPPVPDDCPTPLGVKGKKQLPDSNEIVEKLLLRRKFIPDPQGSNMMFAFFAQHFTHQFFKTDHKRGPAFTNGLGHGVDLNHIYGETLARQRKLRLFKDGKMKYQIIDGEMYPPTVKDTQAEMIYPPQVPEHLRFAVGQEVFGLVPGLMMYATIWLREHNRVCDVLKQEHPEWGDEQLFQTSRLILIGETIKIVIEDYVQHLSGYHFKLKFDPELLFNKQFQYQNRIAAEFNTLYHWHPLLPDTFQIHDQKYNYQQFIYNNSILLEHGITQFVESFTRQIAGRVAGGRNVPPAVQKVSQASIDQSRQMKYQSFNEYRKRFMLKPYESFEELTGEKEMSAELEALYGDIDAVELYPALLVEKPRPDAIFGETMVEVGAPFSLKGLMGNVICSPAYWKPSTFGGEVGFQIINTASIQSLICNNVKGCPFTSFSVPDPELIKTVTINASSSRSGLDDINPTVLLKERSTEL
From the text: as §1, §2

[4] = Distribution coefficient log D7.4; assay type: physicochemical; details: pH 7.4
From the text: Table 1 Distribution Coefficients and IC50 (μM) ^b Values of the Complexes on Caco-2/TC7 Cancer Cells Compared with Auranofin ^a | column: log D7.4

T1 sequence (P23219 24-599): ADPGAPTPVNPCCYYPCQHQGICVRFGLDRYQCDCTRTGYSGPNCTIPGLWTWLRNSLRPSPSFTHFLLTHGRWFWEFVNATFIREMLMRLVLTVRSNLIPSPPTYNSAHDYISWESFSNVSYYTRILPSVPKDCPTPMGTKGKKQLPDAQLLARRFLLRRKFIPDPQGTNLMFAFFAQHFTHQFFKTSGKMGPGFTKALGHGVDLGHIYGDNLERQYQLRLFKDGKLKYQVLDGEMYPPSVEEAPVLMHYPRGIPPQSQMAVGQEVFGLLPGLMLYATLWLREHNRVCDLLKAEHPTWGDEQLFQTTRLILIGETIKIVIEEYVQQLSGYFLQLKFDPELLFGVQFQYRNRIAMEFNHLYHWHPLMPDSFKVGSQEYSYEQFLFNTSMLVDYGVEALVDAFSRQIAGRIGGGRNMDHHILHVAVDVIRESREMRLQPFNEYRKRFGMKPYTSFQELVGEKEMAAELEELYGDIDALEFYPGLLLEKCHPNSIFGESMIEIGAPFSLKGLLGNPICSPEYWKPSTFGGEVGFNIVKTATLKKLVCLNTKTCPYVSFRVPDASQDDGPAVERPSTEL

SMILES | IC50 [1] | Percent inhibition of COX-1 [2] | Percent inhibition of COX-2 [3] | log D7.4 [4]
CC#N.CC(C)(C)P(c1ccccc1-c1ccccc1)C(C)(C)C.[Au+].[F][Sb-]([F])([F])([F])([F])[F] [[Au(MeCN)(JohnPhos)]SbF6, reference compound] | 900 ± 760 nM |  |  | 
CC#N.[Au+].[F][Sb-]([F])([F])([F])([F])[F].c1ccc(-c2ccccc2P(C2CCCCC2)C2CCCCC2)cc1 [[Au(MeCN)(CyJohnPhos)]SbF6, reference compound] | 1240 ± 670 nM |  |  | 
CC[PH](CC)(CC)[Au][S][C@@H]1O[C@H](COC(C)=O)[C@@H](OC(C)=O)[C@H](OC(C)=O)[C@H]1OC(C)=O [Auranofin, reference compound] | 1800 ± 100 nM |  |  | –2.53

More lines, main results first:

IC50 [1] | Percent inhibition of COX-1 [2] | Percent inhibition of COX-2 [3] | SMILES | log D7.4 [4]
 | 15.9 ± 7.3% | 55.8 ± 8.1% | COC(=O)[C@H](CCSC)NC(=O)C(C)c1ccc(CC(C)C)cc1 (stereo partly drawn) [L2, Methyl (2-(4-Isobutylphenyl)propanoyl)methioninate] | 
 | 15.2 ± 5.7% | 63.1 ± 8.9% | COC(=O)[C@H](CCSC)NC(=O)c1ccccc1Nc1cccc(C)c1C [L1, Methyl (2-((2,3-Dimethylphenyl)amino)benzoyl)methioninate] | 
 | 36.9 ± 7.6% | 44.7 ± 13.4% | COC(=O)[C@H](CCSC)NC(=O)[C@@H](C)c1ccc2cc(OC)ccc2c1 [L4, Methyl ((S)-2-(6-Methoxynaphthalen-2-yl)propanoyl)methioninate] | 
 | 22.9 ± 10.7% | 53.6 ± 14.3% | COC(=O)C(CCSC)NC(=O)Cc1c(C)n(C(=O)c2ccc(Cl)cc2)c2ccc(OC)cc12 (stereo not drawn) [L3] | 
